In BindingDB's records for PubMed 8632757 (Merck Sharp & Dohme Research Laboratories, 1996):

Key:
[1] = target: Gamma-aminobutyric acid receptor subunit alpha-6 (Homo sapiens, UniProt Q16445)
[2] = target: T1, Gamma-aminobutyric acid receptor subunit alpha-1 (Homo sapiens, UniProt P14867)
T1 sequence (P14867 whole entry): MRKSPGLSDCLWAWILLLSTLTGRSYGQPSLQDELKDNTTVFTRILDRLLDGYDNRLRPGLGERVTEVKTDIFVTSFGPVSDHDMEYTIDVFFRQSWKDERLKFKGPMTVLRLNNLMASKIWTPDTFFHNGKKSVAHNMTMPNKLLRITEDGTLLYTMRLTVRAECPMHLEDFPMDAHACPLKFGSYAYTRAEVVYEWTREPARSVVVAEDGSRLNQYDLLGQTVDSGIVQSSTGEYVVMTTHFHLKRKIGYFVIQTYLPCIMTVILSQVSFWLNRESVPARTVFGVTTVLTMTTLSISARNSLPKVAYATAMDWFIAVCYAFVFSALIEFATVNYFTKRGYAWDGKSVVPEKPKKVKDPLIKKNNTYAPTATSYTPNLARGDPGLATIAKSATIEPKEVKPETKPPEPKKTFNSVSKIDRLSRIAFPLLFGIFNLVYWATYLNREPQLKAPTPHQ

Gamma-aminobutyric acid receptor subunit alpha-6, sequence (Q16445 whole entry): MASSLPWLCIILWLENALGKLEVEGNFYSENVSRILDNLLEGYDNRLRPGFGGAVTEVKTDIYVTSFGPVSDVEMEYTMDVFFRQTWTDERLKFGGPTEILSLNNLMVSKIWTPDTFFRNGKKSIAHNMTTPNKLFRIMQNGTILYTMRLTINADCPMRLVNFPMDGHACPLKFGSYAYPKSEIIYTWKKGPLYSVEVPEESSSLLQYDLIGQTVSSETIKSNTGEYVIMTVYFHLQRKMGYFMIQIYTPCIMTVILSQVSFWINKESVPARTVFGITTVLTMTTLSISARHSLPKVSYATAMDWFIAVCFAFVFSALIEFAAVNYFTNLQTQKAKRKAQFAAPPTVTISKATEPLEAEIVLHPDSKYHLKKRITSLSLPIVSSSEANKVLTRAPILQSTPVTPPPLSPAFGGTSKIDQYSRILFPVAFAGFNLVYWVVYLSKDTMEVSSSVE

| Structure (SMILES) | Ki [1] | Ki [2] |
| --- | --- | --- |
| CN1C(=O)CN=C(c2ccccc2)c2cc(Cl)ccc21 | > 10000 nM | – |
| Cc1nnc2ccc(-c3cccc(C(F)(F)F)c3)nn12 | > 10000 nM | 89.5 nM |
| COC(=O)c1cc2c(cn1)[nH]c1ccccc12 | 2050 nM | 1 nM |
| CC(C)(C)OC(=O)c1ncn2c1C1CCCN1C(=O)c1c(Br)cccc1-2 (stereo not drawn) [8-Bromo-7-oxo-3b,4,5,6-tetrahydro-7H-2,6a,11b-triaza-benzo[g]cyclopenta[e]azulene-3-carboxylic acid tert-butyl ester] | 12.7 nM | – |
| Cc1ccc(-c2nc3ccc(C)cn3c2CC(=O)N(C)C)cc1 [Ambien] | > 10000 nM | – |
| CC(C)c1nc(-c2ncn3c2CN(C)C(=O)c2c(Cl)cccc2-3)no1 [FG 8205] | 227 nM | 0.68 nM |
| Cc1nnc2n1-c1ccc(Cl)cc1C(c1ccccc1Cl)=NC2 [Halcion] | > 10000 nM | – |
| CCc1c(C(=O)OC)ncc2[nH]c3cc(OC)c(OC)cc3c12 [NSC_104999] | 134 nM | 11.2 nM |
| CCOC(=O)c1ncn2c1CN(C)C(=O)c1cc(N=[N+]=[N-])ccc1-2 [RO-154513] | – | 2.6 nM |
